# Measured values: a melting point compilation (Tetko et al.; mined from patent text by program, amines drawn as free bases though some values may be those of a salt)
row,SMILES,melting point [°C]
1,CCC(O)(c1cccc(NS(=O)(=O)CC)c1)c1c[nH]cn1 (stereo not given),120 to 124
2,Nc1ncnc2c1ncn2Cc1oc2ccccc2c(=O)c1-c1ccc(F)cc1,212 to 216
3,Oc1ccc(-c2cnccn2)cc1,216 to 217
4,Cc1nnc2ccc(-c3cccc(C(F)(F)F)c3)nn12,193 to 194
5,CCOC(=O)N1CCN(C(=O)/C=C/S(=O)(=O)c2ccccc2)CC1,116 to 117
6,N#Cc1nn(-c2c(Cl)cc(Cl)cc2Cl)cc1C1CC1(Br)Br (stereo not given),164
7,O=C1COC2(CCN(CCc3c[nH]c4ccccc34)CC2)CN1,48 to 50
8,Cc1ccc(Cc2cnc(NCCCNc3ncc(Cl)cc3Cl)[nH]c2=O)cn1,147 to 148
9,CC(C)(C)Sc1c(CC(C)(C)C(=O)O)n(Cc2ccc(Cl)cc2)c2ccc(OCc3cccnc3)cc12,206 to 208
10,O=C(O)c1cn(-c2cccc(OC(F)F)c2)cn1,190 to 191
11,COc1cccc(C=C(NC=O)c2ccncc2)c1OC,161 to 162
12,c1ccc(OCc2nnn[nH]2)cc1,128 to 131
13,Cc1nnc2ncc(-c3cccc(C(F)(F)F)c3)nn12,265 to 268
14,Cc1cccnc1CS(N)(=O)=O,155 to 158
15,O=C(CC12CC3CC(CC(C3)C1)C2)N1CCc2sccc2C1,121 to 125
16,Cc1ccccc1P(=NC(=O)OC1CCOC1)(c1ccccc1)c1ccccc1 (stereo not given),118 to 119
17,CCOC(=O)Nc1cc2c(c(N)n1)N=C(c1ccccc1)[C@@H](C)N2,148 to 151
18,COC(=O)C1CC(C#N)(c2ccccc2Cl)CCC1=O (stereo not given),113 to 118
19,Cc1oc(-c2ccccc2)nc1COc1cccc(CSc2cccc(C(=O)O)c2)c1,129 to 130
20,O=C(c1cc(O)c(O)c([N+](=O)[O-])c1)c1cccs1,155 to 157
21,CN(C)C1CCC2c3ccccc3Sc3ccc(C(F)(F)F)cc3N2C1 (stereo not given),118 to 122
22,c1ccc(C(CCc2c[nH]cn2)c2ccccc2)cc1,115 to 117
23,COc1cc2c(cc1OC)CC(O)(CC(=O)O)CC2 (stereo not given),100 to 102
24,C1=C(c2cccs2)CCN(CCCCc2c[nH]c3cc4c(cc23)OCO4)C1,86

row,SMILES,melting point [°C]
1,CCCCn1ncc(/C=C(\Cc2cc3c(cc2OC)OCO3)C(=O)O)c1-c1cc(Cl)c(C)cc1OCc1ccccc1C(=O)O,114 to 116
2,Cc1oc(-c2ccccc2)nc1COc1cccc(COc2cncc(CC(=O)O)c2)c1,158 to 159
3,CCCn1c(=O)c2c(nc(/C=C/c3cc(OC)c(OC)c(OC)c3)n2C)n(CCC)c1=O,168 to 169
4,Cc1ccc(N2C(=O)C(O)=C(C(=O)c3ccc(C(C)C)cc3)C2c2ccc(OC(F)(F)F)cc2)cn1 (stereo not given),214 to 218
5,O=C(c1cc(=O)c2c(OCCOc3ccccc3)cccc2o1)N1CCN(CCO)CC1,191
6,C[C@@H]1CN(CC(=O)Nc2ccccc2C(F)(F)F)C[C@H](C)N1c1ncnc2sccc12,154 to 155
7,CC(=CC#Cc1ccccc1)C(=O)NCCCCCC(=O)NO,135 to 137
8,c1ccc(CN2CCOC(c3ccccc3)(c3ccccc3)CC2)cc1,72 to 75
9,CC(=O)NCC1CN(c2ccc(N3CCC(C4NN=C(N)S4)CC3)c(F)c2)C(=O)O1 (stereo not given),168 to 169
10,O=c1nc(-c2ccc3c(c2)OCO3)c2cc3c(cc2n1CC1CC1)OCO3,255 to 260
11,CCOC(=O)c1cnc2c(-c3ccc(Cc4cccc(OC)c4)c(OC)c3)cnn2c1O,226 to 238
12,COC(=O)c1cc(Oc2c(Cl)cc(Cl)cc2Cl)ccc1[N+](=O)[O-],101 to 103
13,CC(C)(C)CN1C(=O)CC(=O)N(c2ccccc2Cl)c2cc(Cl)ccc21,245 to 246
14,CCOc1ccc(Oc2ccc(OCc3ccccc3)cc2)c([N+](=O)[O-])c1,96 to 96.5
15,CCCCN1CCc2c(C)nc3ncnn3c21,72 to 75
16,COC(=O)c1ccc(CCc2nc(-c3ccccc3)c(C)s2)cc1,52 to 53
17,CCOC(=O)C1Cc2c([nH]c3ccccc23)CN1C(=S)SCc1cccs1 (stereo not given),205 to 207
18,CCOC(=O)CCCCC(NS(=O)(=O)c1ccc(F)cc1)c1ccc2ccccc2c1 (stereo not given),91 to 93
19,NNCCCS(=O)(=O)O,147 to 148
20,COC(=O)Nc1nc(-c2ccccc2)c(-c2nc3ccccc3c(=O)n2-c2ccccc2C)s1,> 275
21,O=C(NCCO)c1cccc(-c2ccc3ccn(-c4ccc(Cl)cc4Cl)c3n2)c1,159 to 160
22,CC(C)(CC(O)(Cn1ccc2c1CCCC2=O)C(F)(F)F)c1cccc2c1OCC2 (stereo not given),145 to 146
23,CC(C)(C)OC[C@@H]1NCCN(CC(=O)O)C1=O,178 to 180
24,Cn1c(COc2ccc(CC3SC(=O)NC3=O)cc2)nc2ccc(Oc3ccc4cccc(NC(=O)NCc5ccccc5)c4c3)cc21 (stereo not given),220 to 222

row,SMILES,melting point [°C]
1,CCCn1c(=O)c2[nH]c(/C=C/c3cc(Br)c(OC)c(OC)c3)nc2n(CCC)c1=O,277 to 278
2,CN(c1cccc2cc(C3=NCC(CCN)S3)[nH]c12)S(=O)(=O)c1cccs1 (stereo not given),172 to 174
3,O=C(O)CCCc1cc2nc(Cl)ccc2n1S(=O)(=O)c1ccc(Cl)cc1Cl,154 to 155
4,CCCNC(=O)CSc1nc(Cl)cc(Nc2cccc(C)c2C)n1,146 to 148
5,COc1ccc(CNc2nc(N)n3nc(-c4ccco4)nc3n2)cc1OCc1ccccc1,173 to 175
6,COc1cc2cn(CC(O)CO)nc2cc1OC (stereo not given),113 to 115
7,N#CC(Cc1ccccc1)C(=O)O (stereo not given),97
8,Cc1[nH]c2ccc(S(=O)(=O)c3ccc(C(F)(F)F)cc3)cc2c1CCNC(=O)OC(C)(C)C,162 to 164
9,CCC(O)c1cc2cc(OCC(=O)O)c(Cl)c(Cl)c2s1 (stereo not given),156 to 158
10,CC1=NOCC1(C)S(=O)(=O)n1nc(Cl)nc1-c1ccccc1 (stereo not given),70 to 74
11,CN(C(=O)CN1C(=O)C(NC(=O)Nc2cccc(C#N)c2)N=C(CN2CCSCC2)c2ccccc21)c1ccccc1 (stereo not given),165
12,O=C(CF)NC[C@H]1CN(c2ccc(N3CCN(c4ccc([N+](=O)[O-])s4)CC3)c(F)c2)C(=O)O1,145 to 150
13,C/C(=C\c1ccc(OC(C)C)cc1Oc1ncc(C(F)(F)F)cc1Cl)C(=O)NS(=O)(=O)NC1CCC(C)CC1 (stereo not given),177
14,CC(NC(=O)c1cc(Cl)ccc1[N+](=O)[O-])C1CC1 (stereo not given),137 to 141
15,O=C1c2ccc(OS(=O)(=O)C(F)(F)F)cc2CCC1Cc1ccccc1 (stereo not given),52 to 53.7
16,OC(c1ccccc1)c1nc(-c2ccncc2)cs1 (stereo not given),146 to 147
17,CCc1c2n(c3ccccc13)C(=O)C(=Cc1ncn(C(c3ccccc3)(c3ccccc3)c3ccccc3)c1C)CC2,217 to 220
18,CN1CCCC1=C(C#N)c1ccc(N)cc1,116 to 118
19,COc1ccc(NC(=O)c2ccc(F)c(F)c2)cc1NCc1cccc(C(=O)O)c1,218 to 221
20,NC(=O)c1cnn(-c2ccc(Cl)nn2)c1N,314 to 317
21,CCCCCCCCCCCCCCCCCCOc1cc(OCC(=O)OC)cc(C(=O)N(CC(=O)OC)CC(=O)OC)c1,53 to 55
22,Nc1nc(-c2ccccc2)c(-c2ccc(=O)n(Cc3ccccc3)n2)s1,225 to 228
